Measured values: patent publication US20250381185A1, “CDK4/PARP1 DUAL-TARGET INHIBITOR AND USE THEREOF” (YANBIAN UNIVERSITY, priority 2024, published 2025)

Columns and labels:
[1] = molecular target: CDK4 (Homo sapiens, UniProt P11802); assay: IC50 of dual-target inhibitors against CDK4; format: biochemical
Procedure: The effectiveness of the present application was verified through the following tests: • (1) IC50 values of the dual-target inhibitors (Examples 1-11) against CDK4 were determined.

[2] = molecular target: PARP1 (Homo sapiens, UniProt P09874); assay: IC50 of dual-target inhibitors against PARP1; format: biochemical
PARP1, sequence (P09874 whole entry): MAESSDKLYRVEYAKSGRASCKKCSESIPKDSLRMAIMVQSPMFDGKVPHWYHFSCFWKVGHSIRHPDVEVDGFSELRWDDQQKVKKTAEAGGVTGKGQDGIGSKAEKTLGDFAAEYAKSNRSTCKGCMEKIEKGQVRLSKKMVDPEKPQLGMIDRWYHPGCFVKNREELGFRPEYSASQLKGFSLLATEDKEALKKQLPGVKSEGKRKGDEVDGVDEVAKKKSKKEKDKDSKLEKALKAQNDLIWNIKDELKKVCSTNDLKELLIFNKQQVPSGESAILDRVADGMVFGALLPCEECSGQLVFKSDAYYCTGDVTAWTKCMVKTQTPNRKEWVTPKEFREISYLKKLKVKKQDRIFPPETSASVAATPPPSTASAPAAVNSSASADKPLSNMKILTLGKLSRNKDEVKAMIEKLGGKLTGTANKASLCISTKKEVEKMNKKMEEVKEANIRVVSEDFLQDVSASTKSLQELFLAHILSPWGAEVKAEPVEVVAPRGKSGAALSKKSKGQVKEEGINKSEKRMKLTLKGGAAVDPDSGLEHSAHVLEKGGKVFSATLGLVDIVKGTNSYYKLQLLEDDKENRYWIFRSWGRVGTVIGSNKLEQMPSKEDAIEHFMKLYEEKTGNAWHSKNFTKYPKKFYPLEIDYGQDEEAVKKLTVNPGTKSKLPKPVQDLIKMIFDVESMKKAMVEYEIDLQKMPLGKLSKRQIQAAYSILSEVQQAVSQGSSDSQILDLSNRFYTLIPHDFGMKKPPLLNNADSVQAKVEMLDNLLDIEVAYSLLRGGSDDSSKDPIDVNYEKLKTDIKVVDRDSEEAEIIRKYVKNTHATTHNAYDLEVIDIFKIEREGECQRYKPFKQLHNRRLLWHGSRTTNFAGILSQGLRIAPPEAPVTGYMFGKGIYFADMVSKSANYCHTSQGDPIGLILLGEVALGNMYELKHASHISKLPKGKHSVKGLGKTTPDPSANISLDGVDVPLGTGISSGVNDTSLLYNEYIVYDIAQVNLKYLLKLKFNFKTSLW

CDK4, sequence (P11802 whole entry): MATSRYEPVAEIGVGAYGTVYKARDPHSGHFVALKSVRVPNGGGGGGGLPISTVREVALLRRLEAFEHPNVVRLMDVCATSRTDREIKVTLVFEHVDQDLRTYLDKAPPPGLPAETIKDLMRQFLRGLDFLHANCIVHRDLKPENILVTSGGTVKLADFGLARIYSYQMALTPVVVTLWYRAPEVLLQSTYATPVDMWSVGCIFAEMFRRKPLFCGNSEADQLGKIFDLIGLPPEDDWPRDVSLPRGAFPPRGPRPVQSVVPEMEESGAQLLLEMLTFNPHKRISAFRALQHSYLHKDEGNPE
CDK4, sequence (P24385 whole entry partner): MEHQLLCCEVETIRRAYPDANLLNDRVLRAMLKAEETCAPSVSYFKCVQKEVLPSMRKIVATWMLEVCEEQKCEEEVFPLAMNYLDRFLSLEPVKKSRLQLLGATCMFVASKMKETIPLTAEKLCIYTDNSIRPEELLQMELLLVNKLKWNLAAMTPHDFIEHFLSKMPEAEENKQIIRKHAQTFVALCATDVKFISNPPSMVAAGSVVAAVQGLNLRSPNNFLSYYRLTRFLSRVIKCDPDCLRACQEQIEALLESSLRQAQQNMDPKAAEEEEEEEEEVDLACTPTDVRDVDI

IC50 [1] | IC50 [2] | Compound
< 0.01 µM | 0.1 to 0.5 µM | Cc1nc2c(F)cc(-c3nc(Nc4cccc(Cc5n[nH]c(=O)c6ccccc56)c4)ncc3F)cc2n1C(C)C [Compound A1]
< 0.01 µM | > 0.5 µM | Cc1nc2c(F)cc(-c3nc(Nc4ccc(C(=O)Nc5cccc(Cc6n[nH]c(=O)c7ccccc67)c5)cc4)ncc3F)cc2n1C(C)C [Compound A2]
0.01 to 0.1 µM | 0.01 to 0.1 µM | Cc1nc2c(F)cc(-c3nc(Nc4ccc(CC(=O)Nc5cccc(Cc6n[nH]c(=O)c7ccccc67)c5)cc4)ncc3F)cc2n1C(C)C [Compound A3]
< 0.01 µM | 0.1 to 0.5 µM | Cc1nc2c(F)cc(-c3nc(Nc4ccc(NC(=O)CCC(=O)Nc5cccc(Cc6n[nH]c(=O)c7ccccc67)c5)cc4)ncc3F)cc2n1C(C)C [Compound A4]
0.01 to 0.1 µM | > 0.5 µM | Cc1nc2c(F)cc(-c3nc(Nc4cccc(C(=O)Nc5cccc(Cc6n[nH]c(=O)c7ccccc67)c5)c4)ncc3F)cc2n1C(C)C [Compound A5]
< 0.01 µM | > 0.5 µM | Cc1nc2c(F)cc(-c3nc(Nc4ccc(Cc5n[nH]c(=O)c6ccccc56)cc4)ncc3F)cc2n1C(C)C [Compound B1]
0.01 to 0.1 µM | 0.1 to 0.5 µM | Cc1nc2c(F)cc(-c3nc(Nc4ccc(NC(=O)c5cc(Cc6n[nH]c(=O)c7ccccc67)ccc5F)cc4)ncc3F)cc2n1C(C)C [Compound C1]
0.01 to 0.1 µM | > 0.5 µM | Cc1nc2c(F)cc(-c3nc(Nc4ccc(C(=O)N5CCN(c6ccc(NC(=O)c7cc(Cc8n[nH]c(=O)c9ccccc89)ccc7F)cc6)CC5)cc4)ncc3F)cc2n1C(C)C [Compound C2]
0.01 to 0.1 µM | > 0.5 µM | Cc1nc2c(F)cc(-c3nc(Nc4ccc(C(=O)N5CCN(c6cccc(NC(=O)c7cc(Cc8n[nH]c(=O)c9ccccc89)ccc7F)c6)CC5)cc4)ncc3F)cc2n1C(C)C [Compound C3]
< 0.01 µM | < 0.01 µM | Cc1nc2c(F)cc(-c3nc(Nc4ccc(N5CCN(C(=O)c6cc(Cc7n[nH]c(=O)c8ccccc78)ccc6F)CC5)cc4)ncc3F)cc2n1C(C)C [Compound C5]
< 0.01 µM | 0.01 to 0.1 µM | Cc1nc2c(F)cc(-c3nc(Nc4ccc(CN5CCN(C(=O)c6cc(Cc7n[nH]c(=O)c8ccccc78)ccc6F)CC5)cc4)ncc3F)cc2n1C(C)C [Compound C6]
< 0.01 µM | 0.01 to 0.1 µM | Cc1nc2c(F)cc(-c3nc(Nc4ccc(C(=O)N5CCN(C(=O)c6cc(Cc7n[nH]c(=O)c8ccccc78)ccc6F)CC5)cc4)ncc3F)cc2n1C(C)C [Compound C7]
0.01 to 0.1 µM | 0.01 to 0.1 µM | Cc1nc2c(F)cc(-c3nc(Nc4cccc(C(=O)N5CCN(C(=O)c6cc(Cc7n[nH]c(=O)c8ccccc78)ccc6F)CC5)c4)ncc3F)cc2n1C(C)C [Compound C8]
< 0.01 µM | 0.01 to 0.1 µM | Cc1nc2c(F)cc(-c3nc(Nc4ccc(CC(=O)N5CCN(C(=O)c6cc(Cc7n[nH]c(=O)c8ccccc78)ccc6F)CC5)cc4)ncc3F)cc2n1C(C)C [Compound C9]
> 0.5 µM | 0.1 to 0.5 µM | CN(C)C(=O)c1cc2cnc(NNC(=O)c3cc(Cc4n[nH]c(=O)c5ccccc45)ccc3F)nc2n1C1CCCC1 [Compound D1]
> 0.5 µM | < 0.01 µM | CN(C)C(=O)c1cc2cnc(NCCCCCCNC(=O)c3cc(Cc4n[nH]c(=O)c5ccccc45)ccc3F)nc2n1C1CCCC1 [Compound D6]
> 0.5 µM | < 0.01 µM | CN(C)C(=O)c1cc2cnc(N3CCN(C(=O)c4cc(Cc5n[nH]c(=O)c6ccccc56)ccc4F)CC3)nc2n1C1CCCC1 [Compound D9]
< 0.01 µM | 0.01 to 0.1 µM | CN(C)C(=O)c1cc2cnc(Nc3ccc(NC(=O)CNC(=O)c4cc(Cc5n[nH]c(=O)c6ccccc56)ccc4F)cc3)nc2n1C1CCCC1 [Compound D14]
0.1 to 0.5 µM | < 0.01 µM | CN(C)C(=O)c1cc2cnc(NCCNC(=O)CNC(=O)c3cc(Cc4n[nH]c(=O)c5ccccc45)ccc3F)nc2n1C1CCCC1 [Compound E1]
0.1 to 0.5 µM | 0.01 to 0.1 µM | CC(C)[C@H](NC(=O)c1cc(Cc2n[nH]c(=O)c3ccccc23)ccc1F)C(=O)NCCNc1ncc2cc(C(=O)N(C)C)n(C3CCCC3)c2n1 [Compound E2]
> 0.5 µM | 0.01 to 0.1 µM | CN(C)C(=O)c1cc2cnc(NCCNC(=O)[C@H](Cc3c[nH]c4ccccc34)NC(=O)c3cc(Cc4n[nH]c(=O)c5ccccc45)ccc3F)nc2n1C1CCCC1 [Compound E3]
> 0.5 µM | 0.01 to 0.1 µM | CN(C)C(=O)c1cc2nc(NCCNC(=O)[C@H](Cc3ccccc3)NC(=O)c3cc(Cc4n[nH]c(=O)c5ccccc45)ccc3F)ncc2n1C1CCCC1 [Compound E4]
> 0.5 µM | 0.01 to 0.1 µM | CC(C)[C@H](NC(=O)c1cc(Cc2n[nH]c(=O)c3ccccc23)ccc1F)C(=O)NNc1ncc2c(cc(C(=O)N(C)C)n2C2CCCC2)n1 [Compound E8]
> 0.5 µM | 0.01 to 0.1 µM | CN(C)C(=O)c1cc2cnc(NCCOC(=O)c3cc(Cc4n[nH]c(=O)c5ccccc45)ccc3F)nc2n1C1CCCC1 [Compound F1]
> 0.5 µM | 0.01 to 0.1 µM | CN(C)C(=O)c1cc2cnc(NCCCOC(=O)c3cc(Cc4n[nH]c(=O)c5ccccc45)ccc3F)nc2n1C1CCCC1 [Compound F2]
